These are literature values, as cited in patent US10143659B2, “Melt-extruded release controlled pharmaceutical composition and oral dosage form comprising the same” (Samyang Biopharmaceuticals Corporation, priority 2012, dated 2018).

In the case of `Cc1nc2n(c(=O)c1CCN1CCC(c3noc4cc(F)ccc34)CC1)CCCC2O` (centres unmarked) [Paliperidone], the “solubility in methylene chloride, methanol and 0.1N hydrochloric acid” value (methylene chloride, methanol, 0.1N hydrochloric acid) was “well dissolved”. The solubility in water result (water) was “poorly soluble”.
